In US6506738B1, “Benzimidazolone antiviral agents” (Bristol-Myers Squibb Company, priority 2000, dated 2003):
pEC50: −log10 of the molar value.

Tests used:
[1] = test system: respiratory syncytial virus Long strain; experiment: Antiviral activity against respiratory syncytial virus in HEp-2 cells (MTT cell protection); assay type: cell-based
Procedure: The antiviral activity of these compounds against respiratory syncytial virus was determined in HEp-2 (ATCC CCL 23) cells that were seeded in 96 well microtiter plates at 1.5×10^4 cells/100 μL/well in DMEM (Dulbecco's Modified Eagle's Medium) supplemented with penicillin, streptomycin, glutamine, and 10% fetal bovine serum. The cells were incubated overnight at 37° C., the culture medium was removed, and cells were infected (100 μL volume in medium containing 2% fetal bovine serum) with respiratory syncytial virus Long strain at 5000 plaque forming units/mL. The compounds, 100 μL at appropriate dilution, were added to the cells 1 hour post infection. After incubation for 4 days at 37° C., the plates were stained with MTT solution (3-[4,5-dimethlythiazol-2-yl]-2,5-diphenyltetrazolium bromide) and incubated for 4 hours at 37° C. The media was aspirated from the cells and 100 μL/well of acidified isopropanol (per liter: 900 mL isopropanol, 100 mL Triton×100, and 4 mL conc. HCl) was added. Plates were incubated for 15 minutes at room temperature with shaking, and an optical density (OD 540) reading at 540 nanometer (nm) was obtained. The optical density reading is proportional to the number of viable cells. The increase in the number of viable cells reflects the protective, antiviral activity of the compound. […]

melting point | pEC50 ([1]; human respiratory syncytial virus, HEp-2 cells infected with RSV Long strain, compound added 1 hour post infection, 4 days, read-out: EC50 (concentration that produces 50% cell protection)) | SMILES | cell protection ([1]; at 2.5 μg/mL (corresponding to 10.2 μM), HEp-2 cells, RSV Long strain)
> 200 °C | – | O=c1[nH]c2ccccc2n1Cc1nc2ccccc2n1CCn1cnnn1 [Compound 184] | –
– | 5.52 | NC(=O)c1ncn([C@@H]2O[C@H](CO)[C@@H](O)[C@H]2O)n1 [Ribavirin] | 100%
